One assay concerns the target prohibitin 2 (PHB2) (Homo sapiens, UniProt Q99623). Kind of assay: SPR on purified recombinant PHB2 […]-194; DSF shift […] °C; DARTS in cells. It counts as binding. Also noted: PHB2 1–194 (6× His tag).
Another assay deals with TTK(h) (Homo sapiens, UniProt P33981). Kind of assay: biochemical. Also noted: Eurofins recombinant human kinase profiling, remaining kinase activity as % of control, 10 uM ATP. Particulars: ATP 10 uM; read-out: %Ctrl@10 μM. The text has this:
(§1) To rapidly determine the biological target of YL-939, we first tested the activity of YL-939 against a panel of 401 recombinant human protein kinases by using the kinase profiling assay provided by Eurofins, since kinases are often the key components in various signal pathways[35],[36]. […] We then carried out affinity-based proteome profiling assay (ABPP) coupled with bioimaging to identify the biological target of YL-939 (Fig. 4A). To this end, we designed and synthesized a photoaffinity probe, YL-939-1 (Fig. 4A and Supplementary Fig. 5), which is YL-939 attached by a photo-crosslinker (L3) that contains a photo-reactive group diazirine and a clickable alkyne handle.

Another assay has as its target DYRK3(h) (Homo sapiens, UniProt O43781). Put plainly: biochemical. Also noted: Eurofins recombinant human kinase profiling, remaining kinase activity as % of control, 10 uM ATP. The settings on record: ATP 10 uM; read-out: %Ctrl@10 μM.
Excerpt: as §1

The target in another assay is T1, CDK5/p25(h) (Homo sapiens, UniProt Q00535).
T1 construct: p25
Kind of assay: biochemical. Also noted: Eurofins recombinant human kinase profiling, remaining kinase activity as % of control, 10 uM ATP. Particulars: ATP 10 uM; read-out: %Ctrl@10 μM.
Excerpt: as §1

The target in the next assay is Syk(h) (Homo sapiens, UniProt P43405). Put plainly: biochemical. Also noted: Eurofins recombinant human kinase profiling, remaining kinase activity as % of control, 10 uM ATP. Particulars: ATP 10 uM; read-out: %Ctrl@10 μM.
Excerpt: as §1

In the next assay the target is CDKL1(h) (Homo sapiens, UniProt Q00532). Put plainly: biochemical. Particulars: ATP 10 uM; read-out: %Ctrl@10 μM. Also noted: Eurofins recombinant human kinase profiling, remaining kinase activity as % of control, 10 uM ATP.
Excerpt: as §1

In the next assay the target is Fyn(h) (Homo sapiens, UniProt P06241). Kind of assay: biochemical. Particulars: ATP 10 uM; read-out: %Ctrl@10 μM. Also noted: Eurofins recombinant human kinase profiling, remaining kinase activity as % of control, 10 uM ATP.
Excerpt: as §1

A further assay addresses SIK2(h) (Homo sapiens, UniProt Q9H0K1). Put plainly: biochemical. Also noted: Eurofins recombinant human kinase profiling, remaining kinase activity as % of control, 10 uM ATP. Particulars: ATP 10 uM; read-out: %Ctrl@10 μM.
Excerpt: as §1

In the next assay the target is T2, PKD2(h) (Homo sapiens, UniProt Q9BZL6).
T2 construct: gene PRKD2
Kind of assay: biochemical. Also noted: Eurofins recombinant human kinase profiling, remaining kinase activity as % of control, 10 uM ATP. Particulars: ATP 10 uM; read-out: %Ctrl@10 μM.
Excerpt: as §1

Another assay has as its target SGK2(h) (Homo sapiens, UniProt Q9HBY8). Put plainly: biochemical. Also noted: Eurofins recombinant human kinase profiling, remaining kinase activity as % of control, 10 uM ATP. The settings on record: ATP 10 uM; read-out: %Ctrl@10 μM.
Excerpt: as §1

For another assay, the target named is Itk(h) (Homo sapiens, UniProt Q08881). Put plainly: biochemical. Also noted: Eurofins recombinant human kinase profiling, remaining kinase activity as % of control, 10 uM ATP. The settings on record: ATP 10 uM; read-out: %Ctrl@10 μM.
Excerpt: as §1

Another assay concerns the target CDK12/cyclinK(h) (Homo sapiens, UniProt Q9NYV4). Put plainly: biochemical. Also noted: Eurofins recombinant human kinase profiling, remaining kinase activity as % of control, 10 uM ATP. The settings on record: ATP 10 uM; read-out: %Ctrl@10 μM.
Excerpt: as §1

In the next assay the target is T3, CaMKIδ(h) (Homo sapiens, UniProt Q8IU85).
T3 construct: gene CAMK1D
Kind of assay: biochemical. Also noted: Eurofins recombinant human kinase profiling, remaining kinase activity as % of control, 10 uM ATP. Particulars: ATP 10 uM; read-out: %Ctrl@10 μM.
Excerpt: as §1

The target of a further assay is T4, CK1γ2(h) (Homo sapiens, UniProt P78368).
T4 construct: gene CSNK1G2
Kind of assay: biochemical. Also noted: Eurofins recombinant human kinase profiling, remaining kinase activity as % of control, 10 uM ATP. The settings on record: ATP 10 uM; read-out: %Ctrl@10 μM.
Excerpt: as §1

A further assay concerns the target WNK4(h) (Homo sapiens, UniProt Q96J92). Put plainly: biochemical. Also noted: Eurofins recombinant human kinase profiling, remaining kinase activity as % of control, 10 uM ATP. The settings on record: ATP 10 uM; read-out: %Ctrl@10 μM.
Excerpt: as §1

The target in a further assay is T5, CHK2(R145W)(h) (Homo sapiens, UniProt O96017, R145W).
T5 construct: gene CHEK2
Put plainly: biochemical. Particulars: ATP 10 uM; read-out: %Ctrl@10 μM. Also noted: Eurofins recombinant human kinase profiling, remaining kinase activity as % of control, 10 uM ATP.
Excerpt: as §1

A further assay concerns the target T6, MLK3(h) (Homo sapiens, UniProt Q16584).
T6 construct: gene MAP3K11
Kind of assay: biochemical. Also noted: Eurofins recombinant human kinase profiling, remaining kinase activity as % of control, 10 uM ATP. The settings on record: ATP 10 uM; read-out: %Ctrl@10 μM.
Excerpt: as §1

A further assay deals with T7, PKBβ(h) (Homo sapiens, UniProt P31751).
T7 construct: gene AKT2
Put plainly: biochemical. Also noted: Eurofins recombinant human kinase profiling, remaining kinase activity as % of control, 10 uM ATP. The settings on record: ATP 10 uM; read-out: %Ctrl@10 μM.
Excerpt: as §1

The target in the next assay is T8, ASK1(h) (Homo sapiens, UniProt Q99683).
T8 construct: gene MAP3K5
Put plainly: biochemical. Also noted: Eurofins recombinant human kinase profiling, remaining kinase activity as % of control, 10 uM ATP. The settings on record: ATP 10 uM; read-out: %Ctrl@10 μM.
Excerpt: as §1

The next assay has as its target EphB3(h) (Homo sapiens, UniProt P54753). Put plainly: biochemical. Also noted: Eurofins recombinant human kinase profiling, remaining kinase activity as % of control, 10 uM ATP. Particulars: ATP 10 uM; read-out: %Ctrl@10 μM.
Excerpt: as §1

A further assay addresses T9, Abl (M351T)(h) (Homo sapiens, UniProt P00519, M351T).
T9 construct: gene ABL1
Put plainly: biochemical. Also noted: Eurofins recombinant human kinase profiling, remaining kinase activity as % of control, 10 uM ATP. Particulars: ATP 10 uM; read-out: %Ctrl@10 μM.
Excerpt: as §1

The target in a further assay is Axl(h) (Homo sapiens, UniProt P30530). Kind of assay: biochemical. Particulars: ATP 10 uM; read-out: %Ctrl@10 μM. Also noted: Eurofins recombinant human kinase profiling, remaining kinase activity as % of control, 10 uM ATP.
Excerpt: as §1

The next assay deals with Ret(V804M)(h) (Homo sapiens, UniProt P07949, V804M). Kind of assay: biochemical. Also noted: Eurofins recombinant human kinase profiling, remaining kinase activity as % of control, 10 uM ATP. The settings on record: ATP 10 uM; read-out: %Ctrl@10 μM.
Excerpt: as §1

Molecules are shown by their SMILES.

T6 sequence (Q16584 whole entry): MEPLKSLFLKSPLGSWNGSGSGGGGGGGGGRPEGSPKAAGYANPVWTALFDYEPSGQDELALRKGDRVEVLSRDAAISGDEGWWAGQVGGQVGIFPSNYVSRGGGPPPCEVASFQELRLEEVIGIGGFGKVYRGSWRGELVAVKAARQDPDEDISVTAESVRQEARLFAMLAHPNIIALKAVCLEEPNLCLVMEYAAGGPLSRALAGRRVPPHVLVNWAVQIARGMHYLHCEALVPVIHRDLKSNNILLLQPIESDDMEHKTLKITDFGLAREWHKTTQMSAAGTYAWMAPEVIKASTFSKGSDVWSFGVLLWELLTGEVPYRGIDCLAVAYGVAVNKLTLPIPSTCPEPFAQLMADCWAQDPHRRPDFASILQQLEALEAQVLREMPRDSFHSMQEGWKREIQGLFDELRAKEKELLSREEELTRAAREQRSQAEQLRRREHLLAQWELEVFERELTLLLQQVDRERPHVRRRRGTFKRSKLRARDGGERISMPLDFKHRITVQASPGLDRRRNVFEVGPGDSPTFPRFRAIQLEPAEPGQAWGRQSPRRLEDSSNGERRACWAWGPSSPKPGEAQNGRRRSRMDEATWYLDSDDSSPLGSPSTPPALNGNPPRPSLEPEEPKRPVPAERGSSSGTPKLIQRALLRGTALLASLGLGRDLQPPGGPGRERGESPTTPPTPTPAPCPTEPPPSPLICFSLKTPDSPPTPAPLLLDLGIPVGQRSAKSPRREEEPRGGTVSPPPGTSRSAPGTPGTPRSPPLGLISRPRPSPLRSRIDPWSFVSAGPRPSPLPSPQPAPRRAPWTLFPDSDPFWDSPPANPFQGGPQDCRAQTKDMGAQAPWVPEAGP
T8 sequence (Q99683 whole entry): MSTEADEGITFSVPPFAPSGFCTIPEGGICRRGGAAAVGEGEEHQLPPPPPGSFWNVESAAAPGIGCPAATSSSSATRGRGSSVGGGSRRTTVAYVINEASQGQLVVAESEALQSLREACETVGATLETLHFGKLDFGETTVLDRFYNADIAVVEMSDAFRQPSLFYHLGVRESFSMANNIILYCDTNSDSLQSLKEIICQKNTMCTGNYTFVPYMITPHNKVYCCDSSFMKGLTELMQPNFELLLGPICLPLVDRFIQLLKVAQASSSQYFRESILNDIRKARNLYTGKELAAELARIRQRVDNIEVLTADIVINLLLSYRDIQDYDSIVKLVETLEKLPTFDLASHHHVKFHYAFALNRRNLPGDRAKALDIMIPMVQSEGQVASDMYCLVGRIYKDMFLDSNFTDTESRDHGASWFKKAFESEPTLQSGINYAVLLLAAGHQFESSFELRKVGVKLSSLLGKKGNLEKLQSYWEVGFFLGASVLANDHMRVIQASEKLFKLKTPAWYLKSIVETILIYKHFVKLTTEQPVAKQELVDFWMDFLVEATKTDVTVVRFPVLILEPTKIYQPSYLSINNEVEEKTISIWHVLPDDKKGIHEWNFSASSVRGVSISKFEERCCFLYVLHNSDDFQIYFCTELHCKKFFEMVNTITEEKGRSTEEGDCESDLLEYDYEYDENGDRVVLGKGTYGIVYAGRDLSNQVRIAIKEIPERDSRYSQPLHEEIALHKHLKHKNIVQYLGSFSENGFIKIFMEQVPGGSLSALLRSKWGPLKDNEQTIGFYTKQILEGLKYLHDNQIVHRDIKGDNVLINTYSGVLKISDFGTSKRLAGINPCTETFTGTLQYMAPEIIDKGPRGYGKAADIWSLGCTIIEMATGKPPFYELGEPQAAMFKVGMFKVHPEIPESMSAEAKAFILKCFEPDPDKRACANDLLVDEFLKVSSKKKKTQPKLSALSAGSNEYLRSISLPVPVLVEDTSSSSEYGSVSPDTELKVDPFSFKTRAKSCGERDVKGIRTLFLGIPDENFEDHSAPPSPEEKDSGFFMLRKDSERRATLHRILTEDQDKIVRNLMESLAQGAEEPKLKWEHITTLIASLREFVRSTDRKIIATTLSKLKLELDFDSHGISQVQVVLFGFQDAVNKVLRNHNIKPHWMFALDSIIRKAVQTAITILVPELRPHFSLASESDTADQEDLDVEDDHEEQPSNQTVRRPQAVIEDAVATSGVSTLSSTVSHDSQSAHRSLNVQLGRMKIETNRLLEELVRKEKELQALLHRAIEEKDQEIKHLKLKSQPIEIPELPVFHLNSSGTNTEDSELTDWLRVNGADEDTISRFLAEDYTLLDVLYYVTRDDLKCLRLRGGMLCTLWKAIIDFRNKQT
T5 sequence (O96017 whole entry R145W): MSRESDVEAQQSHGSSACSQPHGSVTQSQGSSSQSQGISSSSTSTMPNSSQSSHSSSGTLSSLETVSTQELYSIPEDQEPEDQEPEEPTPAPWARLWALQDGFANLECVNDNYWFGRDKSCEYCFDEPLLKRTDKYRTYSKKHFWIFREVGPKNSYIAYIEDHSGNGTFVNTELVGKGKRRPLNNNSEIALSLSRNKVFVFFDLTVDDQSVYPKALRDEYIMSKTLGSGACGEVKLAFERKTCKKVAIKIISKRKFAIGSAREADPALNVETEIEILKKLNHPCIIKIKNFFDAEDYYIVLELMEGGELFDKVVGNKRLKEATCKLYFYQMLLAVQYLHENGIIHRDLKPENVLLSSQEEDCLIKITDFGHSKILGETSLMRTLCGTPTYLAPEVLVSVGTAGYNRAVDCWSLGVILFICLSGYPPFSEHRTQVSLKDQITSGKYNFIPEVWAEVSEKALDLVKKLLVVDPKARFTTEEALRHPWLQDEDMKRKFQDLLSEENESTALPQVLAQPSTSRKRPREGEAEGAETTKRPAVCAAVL
Sequence of DYRK3(h) (O43781 whole entry): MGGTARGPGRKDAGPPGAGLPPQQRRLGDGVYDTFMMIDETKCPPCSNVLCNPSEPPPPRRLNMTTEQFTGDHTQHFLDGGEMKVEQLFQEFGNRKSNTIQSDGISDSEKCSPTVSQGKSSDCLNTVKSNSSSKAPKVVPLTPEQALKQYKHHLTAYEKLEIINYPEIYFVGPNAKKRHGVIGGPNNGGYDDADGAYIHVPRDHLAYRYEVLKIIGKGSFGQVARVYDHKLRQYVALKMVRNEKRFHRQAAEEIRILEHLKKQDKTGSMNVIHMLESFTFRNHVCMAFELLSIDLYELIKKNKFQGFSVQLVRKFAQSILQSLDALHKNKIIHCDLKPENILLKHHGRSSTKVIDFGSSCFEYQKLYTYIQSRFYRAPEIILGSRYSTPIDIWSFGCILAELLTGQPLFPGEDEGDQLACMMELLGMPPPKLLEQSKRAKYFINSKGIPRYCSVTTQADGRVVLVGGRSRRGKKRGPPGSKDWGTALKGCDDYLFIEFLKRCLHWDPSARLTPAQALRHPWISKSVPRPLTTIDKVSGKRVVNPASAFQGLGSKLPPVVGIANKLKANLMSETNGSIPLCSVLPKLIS
Sequence of WNK4(h) (Q96J92 whole entry): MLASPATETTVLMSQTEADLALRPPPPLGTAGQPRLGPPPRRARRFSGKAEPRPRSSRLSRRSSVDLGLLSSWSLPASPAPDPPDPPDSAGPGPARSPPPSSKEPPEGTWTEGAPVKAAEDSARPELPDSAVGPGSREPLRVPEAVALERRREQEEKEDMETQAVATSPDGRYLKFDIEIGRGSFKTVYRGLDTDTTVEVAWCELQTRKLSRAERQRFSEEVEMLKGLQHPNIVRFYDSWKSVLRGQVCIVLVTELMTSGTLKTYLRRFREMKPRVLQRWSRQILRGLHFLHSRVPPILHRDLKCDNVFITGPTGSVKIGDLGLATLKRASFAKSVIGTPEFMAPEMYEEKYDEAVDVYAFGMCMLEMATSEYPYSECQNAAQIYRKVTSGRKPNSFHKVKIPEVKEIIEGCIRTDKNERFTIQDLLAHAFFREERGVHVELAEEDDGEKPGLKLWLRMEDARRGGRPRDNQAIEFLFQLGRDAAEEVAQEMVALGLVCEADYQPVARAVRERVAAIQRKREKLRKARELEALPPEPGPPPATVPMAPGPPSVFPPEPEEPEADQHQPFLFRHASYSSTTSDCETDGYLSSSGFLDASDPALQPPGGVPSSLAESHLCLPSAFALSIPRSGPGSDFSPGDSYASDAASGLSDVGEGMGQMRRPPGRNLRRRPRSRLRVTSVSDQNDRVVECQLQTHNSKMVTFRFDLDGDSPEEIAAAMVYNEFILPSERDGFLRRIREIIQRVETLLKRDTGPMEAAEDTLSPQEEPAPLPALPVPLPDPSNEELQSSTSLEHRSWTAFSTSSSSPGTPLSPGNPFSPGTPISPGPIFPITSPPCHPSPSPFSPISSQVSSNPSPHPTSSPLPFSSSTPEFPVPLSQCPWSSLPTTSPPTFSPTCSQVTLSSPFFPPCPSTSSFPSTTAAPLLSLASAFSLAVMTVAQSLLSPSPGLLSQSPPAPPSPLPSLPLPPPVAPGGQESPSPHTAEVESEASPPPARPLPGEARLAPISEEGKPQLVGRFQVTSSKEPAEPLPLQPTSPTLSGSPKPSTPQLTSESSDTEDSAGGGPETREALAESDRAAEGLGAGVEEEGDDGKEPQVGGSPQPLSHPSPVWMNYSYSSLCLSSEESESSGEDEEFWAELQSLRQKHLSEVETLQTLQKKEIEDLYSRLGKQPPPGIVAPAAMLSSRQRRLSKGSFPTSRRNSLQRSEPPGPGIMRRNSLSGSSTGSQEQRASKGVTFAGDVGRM
Sequence of CDKL1(h) (Q00532 whole entry): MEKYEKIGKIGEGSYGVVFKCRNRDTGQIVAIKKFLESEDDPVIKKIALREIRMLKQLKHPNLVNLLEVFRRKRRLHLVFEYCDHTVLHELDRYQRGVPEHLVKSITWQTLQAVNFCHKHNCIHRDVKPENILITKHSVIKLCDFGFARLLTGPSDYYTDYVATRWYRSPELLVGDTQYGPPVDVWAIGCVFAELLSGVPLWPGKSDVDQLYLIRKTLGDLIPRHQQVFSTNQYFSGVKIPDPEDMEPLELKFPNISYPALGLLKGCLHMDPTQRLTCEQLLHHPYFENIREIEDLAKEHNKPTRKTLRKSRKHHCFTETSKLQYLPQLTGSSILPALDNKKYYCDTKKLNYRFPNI

As a reminder, the Kd is the constant that tells how readily two partners part at equilibrium. For the compound `C1=C(c2nc(-c3cnn(C4CCNCC4)c3)cn3cc(-c4ccccc4)nc23)CCOC1` [YL-939], the Kd on prohibitin 2 (PHB2) was 3.43 µM. Besides, the remaining activity at 10 µM at TTK(h) is 102%; on DYRK3(h), 77%; at CDK5/p25(h) it was 120%; at Syk(h) it was 62%; at CDKL1(h) it was 96%; on Fyn(h), 81%. Also, the remaining activity at 10 µM was 94% on SIK2(h); 89% at PKD2(h); 96% at SGK2(h); 106% at Itk(h); 99% at CDK12/cyclinK(h); 90% at CaMKIδ(h). Further, the remaining activity at 10 µM on CK1γ2(h) came out at 90%; at WNK4(h), 102%; on CHK2(R145W)(h), 98%; at MLK3(h) it was 111%; on PKBβ(h) it was 87%; at ASK1(h), 110%. For the same compound, the remaining activity at 10 µM on EphB3(h) is 93%; on Abl (M351T)(h), 108%; on Axl(h), 84%; on Ret(V804M)(h), 102%.
